Source: US20190255086A1, “Compositions and Methods for Treating an Infection” (CMPD Licensing, LLC, priority 2015, published 2019)

Columns and labels:
Cryptococcus neoformans = experiment: Expected efficacy of anti-fungal agents against various fungi (Table 4)
Aspergillus fumigatus = experiment: as above
Candida species = experiment: as above
Blastomyces dermatitidis = experiment: as above
Coccidioides immitis = settings: expected efficacy
Diphtheroids = experiment: Expected efficacy of anti-bacterial agents against various bacteria (Tables 5 and 6); settings: Gram: pos
[1] = system: Acinetobacter calcoaceticus; experiment: as above; settings: Gram: neg
Corynebacterium jeikeium = experiment: as above; settings: Gram: pos
Streptococcus agalactiae = experiment: as above; settings: Gram: pos
Vibrio cholerae = experiment: as above; settings: Gram: neg
Streptococcus pneumoniae = experiment: as above; settings: Gram: pos
[2] = system: Viridans group streptococci; experiment: as above; settings: Gram: pos
Salmonella typhi = experiment: as above; settings: Gram: neg
Acinetobacter lwoffii = experiment: as above; settings: Gram: neg
Klebsiella pneumoniae = experiment: as above; settings: Gram: neg
Shigella dysenteriae = experiment: Expected efficacy of anti-bacterial agents against various bacteria (Tables 5 and 6); settings: Gram: neg
Proteus vulgaris = experiment: as above; settings: Gram: neg
Pseudomonas aeruginosa = experiment: Expected efficacy of anti-bacterial agents against various bacteria (Tables 5 and 6); settings: Gram: neg
[3] = system: Haemophilus parainfluenzae; experiment: as above; settings: Gram: neg
Shigella flexneri = experiment: Expected efficacy of anti-bacterial agents against various bacteria (Tables 5 and 6); settings: Gram: neg
Providencia rettgeri = experiment: as above; settings: Gram: neg
[4] = system: Staphylococcus epidermidis; experiment: as above; settings: Gram: pos
Enterococcus faecium = experiment: Expected efficacy of anti-bacterial agents against various bacteria (Tables 5 and 6); settings: Gram: pos
[5] = system: Corynebacterium urealyticum; experiment: as above; settings: Gram: pos
Bacteroides fragilis = experiment: as above; settings: Gram: anaer
Escherichia coli = experiment: as above; settings: Gram: neg
Bordetella pertussis = experiment: as above; settings: Gram: neg
Klebsiella oxytoca = experiment: Expected efficacy of anti-bacterial agents against various bacteria (Tables 5 and 6); settings: Gram: neg
[6] = system: Klebsiella (Calymmatobacterium) granulomatis; experiment: as above; settings: Gram: neg
Neisseria gonorrhoeae = experiment: as above; settings: Gram: neg
Bartonella bacilliformis = experiment: as above; settings: Gram: neg
Clostridium difficile = experiment: as above; settings: Gram: anaer
Peptostreptococcus = experiment: as above; settings: Gram: pos
Haemophilus ducreyi = experiment: as above; settings: Gram: neg
Chlamydia pneumoniae = experiment: as above; settings: Gram: n/a
Shigella boydii = experiment: as above; settings: Gram: neg
Mycoplasma pneumoniae = experiment: as above; settings: Gram: n/a
Enterococcus faecalis = experiment: as above; settings: Gram: pos
Enterobacter sakazakii = experiment: as above; settings: Gram: neg
[7] = system: Staphylococcus aureus (MSSA); experiment: as above; settings: Gram: pos
Enterobacter cloacae = experiment: as above; settings: Gram: neg
Citrobacter freundii = experiment: as above; settings: Gram: neg
Acinetobacter baumannii = experiment: as above; settings: Gram: neg
Proteus mirabilis = experiment: Expected efficacy of anti-bacterial agents against various bacteria (Tables 5 and 6); settings: Gram: neg
[8] = system: Methicillin resistant staph aureus (MRSA); experiment: as above; settings: Gram: pos
Chlamydia trachomatis = experiment: as above; settings: Gram: n/a
Citrobacter diversus = experiment: as above; settings: Gram: neg
Moraxella catarrhalis = experiment: as above; settings: Gram: neg
Streptococcus pyogenes = experiment: as above; settings: Gram: pos
Morganella morganii = experiment: Expected efficacy of anti-bacterial agents against various bacteria (Tables 5 and 6); settings: Gram: neg
Neisseria meningitidis = experiment: as above; settings: Gram: neg
Campylobacter jejuni = experiment: as above; settings: Gram: neg
Pseudomonas fluorescens = experiment: as above; settings: Gram: neg
Shigella sonnei = experiment: as above; settings: Gram: neg
Serratia marcescens = experiment: as above; settings: Gram: neg
Haemophilus influenzae = experiment: as above; settings: Gram: neg
Providencia stuartii = experiment: as above; settings: Gram: neg
Enterobacter aerogenes = experiment: as above; settings: Gram: neg

OC(Cn1cncn1)(Cn1cncn1)c1ccc(F)cc1F [Fluconazole]
Efficacy of various antifungal agents (Cryptococcus neoformans): yes | Efficacy of various antifungal agents (Aspergillus fumigatus): yes | Efficacy of various antifungal agents (Candida species): yes | Efficacy of various antifungal agents (Blastomyces dermatitidis): yes | Efficacy of various antifungal agents (Coccidioides immitis): yes

CN[C@H](CC(C)C)C(=O)N[C@H]1C(=O)N[C@@H](CC(N)=O)C(=O)N[C@H]2C(=O)N[C@H]3C(=O)N[C@H](C(=O)N[C@H](C(=O)O)c4cc(O)cc(O)c4-c4cc3ccc4O)[C@H](O)c3ccc(c(Cl)c3)Oc3cc2cc(c3O[C@@H]2O[C@H](CO)[C@@H](O)[C@H](O)[C@H]2O[C@H]2C[C@](C)(N)[C@H](O)[C@H](C)O2)Oc2ccc(cc2Cl)[C@H]1O [Vancomycin]
Efficacy of various antibiotic agents (Diphtheroids): yes | Efficacy of various antibiotic agents [1]: no | Efficacy of various antibiotic agents (Corynebacterium jeikeium): yes | Efficacy of various antibiotic agents (Streptococcus agalactiae): yes | Efficacy of various antibiotic agents (Vibrio cholerae): no | Efficacy of various antibiotic agents (Streptococcus pneumoniae): yes | Efficacy of various antibiotic agents [2]: yes | Efficacy of various antibiotic agents (Salmonella typhi): no | Efficacy of various antibiotic agents (Acinetobacter lwoffii): no | Efficacy of various antibiotic agents (Klebsiella pneumoniae): no | Efficacy of various antibiotic agents (Clostridium perfringens): no | Efficacy of various antibiotic agents (Shigella dysenteriae): no | Efficacy of various antibiotic agents (Proteus vulgaris): no | Efficacy of various antibiotic agents (Francisella tularensis): no | Efficacy of various antibiotic agents (Pseudomonas aeruginosa): no | Efficacy of various antibiotic agents [3]: no | Efficacy of various antibiotic agents (Yersinia pestis): no | Efficacy of various antibiotic agents (Shigella flexneri): no | Efficacy of various antibiotic agents (Providencia rettgeri): no | Efficacy of various antibiotic agents [4]: yes | Efficacy of various antibiotic agents (Chlamydia psittaci): no | Efficacy of various antibiotic agents (Enterococcus faecium): yes, not VRE | Efficacy of various antibiotic agents [5]: yes | Efficacy of various antibiotic agents (Bacteroides fragilis): no | Efficacy of various antibiotic agents (Escherichia coli): no | Efficacy of various antibiotic agents (Bordetella pertussis): no | Efficacy of various antibiotic agents (Brucella species): no | Efficacy of various antibiotic agents (Klebsiella oxytoca): no | Efficacy of various antibiotic agents [6]: no | Efficacy of various antibiotic agents (Neisseria gonorrhoeae): no | Efficacy of various antibiotic agents (Bartonella bacilliformis): no | Efficacy of various antibiotic agents (Clostridium difficile): yes | Efficacy of various antibiotic agents (Peptostreptococcus): yes | Efficacy of various antibiotic agents (Haemophilus ducreyi): no | Efficacy of various antibiotic agents (Chlamydia pneumoniae): no | Efficacy of various antibiotic agents (Shigella boydii): no | Efficacy of various antibiotic agents (Mycoplasma pneumoniae): no | Efficacy of various antibiotic agents (Enterococcus faecalis): yes | Efficacy of various antibiotic agents (Enterobacter sakazakii): no | Efficacy of various antibiotic agents [7]: yes | Efficacy of various antibiotic agents (Enterobacter cloacae): no | Efficacy of various antibiotic agents (Citrobacter freundii): no | Efficacy of various antibiotic agents (Acinetobacter baumannii): no | Efficacy of various antibiotic agents (Legionella pneumophila): no | Efficacy of various antibiotic agents (Proteus mirabilis): no | Efficacy of various antibiotic agents [8]: yes | Efficacy of various antibiotic agents (Chlamydia trachomatis): no | Efficacy of various antibiotic agents (Citrobacter diversus): no | Efficacy of various antibiotic agents (Moraxella catarrhalis): no | Efficacy of various antibiotic agents (Streptococcus pyogenes): yes | Efficacy of various antibiotic agents (Rickettsiae): no | Efficacy of various antibiotic agents (Morganella morganii): no | Efficacy of various antibiotic agents (Neisseria meningitidis): no | Efficacy of various antibiotic agents (Campylobacter jejuni): no | Efficacy of various antibiotic agents (Pseudomonas fluorescens): no | Efficacy of various antibiotic agents (Shigella sonnei): no | Efficacy of various antibiotic agents (Serratia marcescens): no | Efficacy of various antibiotic agents (Haemophilus influenzae): no | Efficacy of various antibiotic agents (Providencia stuartii): no | Efficacy of various antibiotic agents (Enterobacter aerogenes): no
